Where “and” joins values, the source holds several entries; their conditions need not be identical. Equal entries are not always repeated. Entries after “also recorded” stand apart in the source; their conditions may differ. Where two headings read alike, the source gives them in different places.
Columns and labels:
MHV-A59 [1] = assay type: cell-based, Murine hepatitis virus; conditions: for IC50: DFMO pretreatment 4 days, CPX, DEF, GC7 24h
MHV [2] = experiment: Direct incubation of MHV with compound, then titering; design: species or system Murine hepatitis virus; conditions: 10 μM for 24h, then titered
MERS-CoV = conditions: in vitro, dose of 500 μM; cited from earlier work
cellular polyamines = experiment: Thin-layer chromatography of cell-associated polyamines; assay type: cell-based
SARS-CoV-2 = assay type: cell-based; conditions: 5 mM DFMO, Vero-E6, MOI 0.1, 24 hpi
HCoV-NL63 = HCoV-NL63 qPCR-based attachment assay on Vero-E6 cells; assay type: cell-based; conditions: DFMO-treated Vero-E6 cells
[3] = test system: SARS-CoV-2 pseudoparticles; assay type: cell-based; conditions: DFMO-treated Vero-E6 cells
MHV-A59 [4] = experiment: Plaque size measurement with DFMO applied at time of infection; assay type: cell-based, Murine hepatitis virus
MHV-A59 [5] = assay type: cell-based, Murine hepatitis virus
MHV [6] = experiment: MHV attachment assays; assay type: cell-based, Murine hepatitis virus

For `NCCCNCCCCNCCCN` [spermine], the “effect of exogenous polyamine on MHV titers” value (from here on “effect of exogenous polyamine”) (MHV-A59 [1]) was “modestly reduced viral titers; also recorded: reduces virus replication”, the “rescue of MHV replication in DFMO-treated cells” value (from here on “rescue of MHV replication”) (MHV-A59 [1]) was “rescued virus replication to untreated levels” and the “cytotoxicity” value (BHK-R cells) was “significant cytotoxicity”. The “infectivity of MHV after direct incubation” value (from here on “infectivity of MHV”) (MHV [2]) was “titers were unchanged”.

With `NCCCCN` [putrescine] the “effect of exogenous polyamine” value (MHV-A59 [1]) was “modestly reduced viral titers”, the “rescue of MHV replication” value (MHV-A59 [1]) was “rescued virus replication to untreated levels” and the “infectivity of MHV” value (MHV [2]) was “titers were unchanged”.

In the case of `NCCCC(N)(C(=O)O)C(F)F` (stereo not shown) [DFMO, difluoromethylornithine], the “sensitivity of MERS-CoV” value (MERS-CoV) is given as “sensitive”, the “MHV genome levels in supernatant (qPCR)” value (MHV-A59 [1]) is given as “reduced genome levels” and the “MHV production after repeated versus single dosing” value (MHV-A59 [1]) is given as “repeated dosing is as effective as a single drug treatment”. The “MHV titers over several rounds of replication” value (MHV-A59 [1]) was “reduced viral titers compared to no treatment group up to 72 h”, the “antiviral effect after drug removal” value (MHV-A59 [1]) was “completely reversed” and the “specific infectivity (genomes per PFU)” value (MHV-A59 [1]) was “increased the ratio of genomes to titer”. For the same compound, the IC50 (MHV-A59 [1]) was 380 µM, the “polyamine levels by TLC” value (cellular polyamines; BHK-R cells) was “depleted polyamines” and the “polyamine levels by TLC” value (cellular polyamines; HeLa-R cells, DENSpm at 10 μM) was “reduced polyamines”. The “polyamine levels by TLC” value (cellular polyamines; Vero-E6 cells, 750 μM to 5 mM DFMO) was “successfully depleted polyamines”, the “reduction of SARS-CoV-2 genomes” value (SARS-CoV-2) was “greater than 50 fold” and the HCoV-NL63 attachment (HCoV-NL63) was “attachment was sensitive to DFMO treatment”. For the same compound, the “cellular attachment of SARS-CoV-2 pseudoparticles” value [3] was “reduction in cellular attachment of SARS-CoV-2 pseudoparticles in a dose-dependent manner”, the plaque size (MHV-A59 [4]; BHK-R cells, DFMO in overlay media at time of infection) was “no changes in plaque size” and the plaque area (MHV-A59 [4]; HeLa-R cells, DFMO at time of infection) was “small, though statistically insignificant change”. For the same compound, the IC50 (MHV-A59 [5]) was ~7 µM and 7 µM, the “toxicity” value (HeLa-R cells) was “not toxic to these cells” and the “infectivity of MHV” value (MHV [2]) was “titers were unchanged”. For the same compound, the “attachment and plaque formation” value (MHV [6]) was “significantly inhibited” and the “bound viral genomes (qRT-PCR)” value (MHV [6]) was “significantly reduced”.

With `NCCCCNCCCN` [spermidine] the “effect of exogenous polyamine” value (MHV-A59 [1]) was “modestly reduced viral titers; also recorded: does not inhibit or restrict virus replication”, the “rescue of MHV replication” value (MHV-A59 [1]) was “rescued virus replication to untreated levels” and the “infectivity of MHV” value (MHV [2]) was “titers were unchanged”.

For `Cc1c(O)c(=O)ccn1C` [DEF, deferiprone], the MHV replication (MHV-A59 [1]) was “significantly reduced MHV replication in a dose-dependent manner” and the “cytotoxicity” value (BHK-R cells) was “cytotoxicity was minimal”.

With `Cc1cc(C2CCCCC2)n(O)c(=O)c1` [CPX, ciclopirox] the MHV replication (MHV-A59 [1]) was “significantly reduced MHV replication in a dose-dependent manner” and the “cytotoxicity” value (BHK-R cells) was “cytotoxicity was minimal”.

In the case of `NCCCCCCCN=C(N)N` [GC7], the MHV replication (MHV-A59 [1]) is reported as “significantly reduced MHV replication in a dose-dependent manner”, the IC50 (MHV-A59 [1]) is reported as 7.4 µM and the “cytotoxicity” value (BHK-R cells) is reported as “cytotoxicity was minimal”.

Reference: PMC7539557 (ACS infectious diseases, 2020)
